Results reported in paper PMC9482650, “Quantitative fragmentomics allow affinity mapping of interactomes” (Nature Communications, 2022).
Ends that are not written are not given here. * marks the point of attachment. Biotin = O=C1N[C@H]2[C@H](CS[C@H]2CCCCC(=O)*)N1; ttds = NCCCOCCOCCOCCCNC(=O)CCC(=O)*

Assays:
Test in all cases: PBM-AP-MS from Jurkat extract
Format in all cases: binding, Homo sapiens
[1] = tested on: CASK; conditions: prey CASK, PBM peptide bait
Experimental: (§1) For PBM-AP-MS experiments, 30 μl streptavidin resin was mixed with biotin or peptide at 50–60 μM concentration in 6–6.5 resin volume for 60 min to achieve resin saturation. For PDZ-AP-MS experiments, 30 μl streptavidin resin was mixed with biotinylated MBP or MBP-PDZ at 40-50 μM concentration in >1000× resin volume for 60 min to achieve resin saturation. After saturation, resins were washed a single time (ten resin volume, holdup buffer), and were depleted with biotin (1 mM biotin, 5–10 resin volume, 10 min). Finally, resins were washed two times. 0.5 ml 2 mg/ml cell lysate was added to the dry resin (1 mg total input) and were incubated at 4 °C for 2 h. Then, the beads were washed three times with 10 resin volume buffer containing: 50 mM TRIS pH 8.5, 150 mM NaCl, 1% TritonX-100, 10× complete EDTA-free protease inhibitor cocktail, 2 mM EDTA, 1 mM TCEP. Then, the beads were washed two times with ten resin volume buffer containing: 50 mM TRIS pH 8.5, 150 mM NaCl, 1 mM TCEP. Finally, captured protein was eluted from the resin in two steps and the eluted fractions were pooled. For each elution the beads were incubated for 30 min with three resin volume buffer containing: 20 mM TRIS pH8.5, 100 mM NaCl, 500 μM TCEP, 8 M Urea. Between each step, the beads were separated by mild centrifugation and the supernatant was removed by gentle pipetting.
(§2) Proteins were identified by database searching using SequestHT (Thermo Fisher Scientific) with Proteome Discoverer 2.4 software (PD2.4, Thermo Fisher Scientific) on human FASTA database downloaded from SwissProt (reviewed, release 2020_11_27, 20304 entries, https://www.uniprot.org/). Precursor and fragment mass tolerances were set at 7 ppm and 0.6 Da respectively, and up to two missed cleavages were allowed. Oxidation (M, +15.995 Da) was set as variable modification, and Carbamidomethylation (C, +57.021 Da) as fixed modification. Peptides and proteins were filtered with a false discovery rate at 1%. Label-free quantification was based on the extracted ion chromatography intensity of the peptides. All samples were measured in technical triplicates. The measured extracted ion chromatogram (XIC) intensities were normalized based on median intensities of the entire dataset to correct minor loading differences. For statistical tests and enrichment calculations, not detectable intensity values were treated with an imputation method, where the missing values were replaced by random values similar to the 10% of the lowest intensity values present in the entire dataset. Unpaired two-tailed T-test, assuming equal variance, were performed on obtained log2 XIC intensities. The detection threshold for enriched proteins in AP-MS experiments were analyzed above twofold enrichment with <0.01 P value. Then, proteins with PDZ-domains or PBMs were extracted from the list of enriched proteins. In case only a specific isoform of the detected protein contains a PBM, the identified peptide fragments were manually checked to check which isoform(s) were most likely detected. All raw LC-MS/MS data (from 165 runs) have been deposited to the ProteomeXchange via the PRIDE database with identifier PXD027743.

[2] = tested on: DLG1; conditions: prey DLG1, PBM peptide bait
Experimental: as §1, §2

[3] = tested on: LIN7C; conditions: prey LIN7C, PBM peptide bait
Experimental: as §1, §2

[4] = tested on: MAGI1; conditions: prey MAGI1, PBM peptide bait
Experimental: as §1, §2

[5] = tested on: SCRIB; conditions: prey SCRIB, PBM peptide bait
Experimental: as §1, §2

Row | Substance | Enrichment values compared to biotin controls [1] | Enrichment values compared to biotin controls [2] | Enrichment values compared to biotin controls [3] | Enrichment values compared to biotin controls [4] | Enrichment values compared to biotin controls [5]
1 | HPV35E6 ({Biotin-ttds}-SKPTRRETEV) | 12.7 | 596.6 | 34.7 | 54.3 | 314.5
2 | HPV30E6 ({Biotin-ttds}-RHTTSTETAV) | 11.1 | 488.6 | 26.9 | 25.1 | 266.4
3 | HPV18E6 | 15.2 | 519.3 | 68.0 | 134.3 | 288.2
